Here are results for 35 compounds from ChEMBL document CHEMBL1139102, “Comparison of N,N'-diarylsquaramides and N,N'-diarylureas as antagonists of the CXCR2 chemokine receptor” (Bioorg Med Chem Lett, 2007).

Structures are written as SMILES. Values after ≈ are worked out from the molar mass of the structure shown. Values joined by “and” are separate entries in the source; they are usually repeats but may differ in a detail not shown here. Equal values may be shown once.

Data set [1] deals with T1, C-X-C chemokine receptor type 2 (Homo sapiens, UniProt P25025).
T1 sequence (P25025 whole entry): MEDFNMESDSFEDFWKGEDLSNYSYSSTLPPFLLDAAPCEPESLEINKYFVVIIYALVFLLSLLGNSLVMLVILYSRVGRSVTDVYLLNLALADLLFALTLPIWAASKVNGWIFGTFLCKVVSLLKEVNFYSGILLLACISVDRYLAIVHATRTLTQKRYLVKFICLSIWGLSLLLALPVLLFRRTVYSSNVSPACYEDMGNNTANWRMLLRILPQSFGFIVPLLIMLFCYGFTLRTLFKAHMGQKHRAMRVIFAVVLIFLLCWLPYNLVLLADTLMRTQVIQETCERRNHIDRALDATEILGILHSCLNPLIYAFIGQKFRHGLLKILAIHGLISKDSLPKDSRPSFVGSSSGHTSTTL
Kind of data set: Displacement of [125I]IL8 from human recombinant CXCR2 expressed in CHO cells. The class given is cell-based. On the technique in general: In a radioligand displacement assay an active substance lowers the binding of a labelled ligand.

Data set [2] can be described thus: Dissociation constant, pKa at pH 7.4. Type of data set: physicochemical.
Data set [3] can be described thus: Aqueous solubility in phosphate buffer at pH 7.4. Type of data set: physicochemical.
Data set [4] is described as follows: Clearance in Sprague-Dawley rat at 4 umol/kg, iv and 8 umol/kg, po. Type of data set: ADME, organism-based. The conditions noted are these: in vivo.
The nature of data set [5]: Volume of distribution at steady state in Sprague-Dawley rat at 4 umol/kg, iv and 8 umol/kg, po. Type of data set: ADME, organism-based. The conditions noted are these: in vivo, read-out: Vdss.
Data set [6] is described as follows: in vivo. To be noted: Sprague-Dawley, rat, po, 8 umol/kg.

For `N#Cc1ccc(Nc2c(O)c(=O)/c2=N\c2ccccc2)c(O)c1`, in data set [1], the IC50 stood at 15 nM. The pKa in data set [2] was 7.09. Consider `O=c1c(Nc2ccccc2)c(Nc2cc(Cl)c([N+](=O)[O-])cc2O)c1=O`, for which the IC50 in data set [1] turned out to be 52 nM. In the case of `O=c1c(Nc2ccccc2)c(Nc2cc(Cl)ccc2O)c1=O`, the IC50 in data set [1] worked out at 54 nM.

In data set [3], `NC(=O)c1c(Cl)ccc(Nc2c(Nc3ccccc3)c(=O)c2=O)c1O` yielded a solubility of 88 µM (≈ 31.5 µg/mL). Also, the IC50 in data set [1] is 14 nM.

`CCCc1ccccc1Nc1c(Nc2ccc(Cl)c(S(=O)(=O)N3CCN(CC)CC3)c2O)c(=O)c1=O.O=C(O)C(F)(F)F`: the clearance in data set [4] turned out to be 7 mL/min/kg. This compound yielded a solubility in data set [3] of 78 µM. Moreover, the IC50 in data set [1] came out at 8 nM. For the same compound, in data set [5], the Vd amounted to 0.89 L/kg.

On to `O=c1c(Nc2ccccc2)c(Nc2c(O)cccc2[N+](=O)[O-])c1=O`, for which the IC50 in data set [1] came to 358 nM. As to `N#Cc1ccc(Nc2c(Nc3ccccc3Br)c(=O)c2=O)c(O)c1`, the clearance in data set [4] is 15 mL/min/kg. Moreover, the solubility in data set [3] was found to be 14 µM (≈ 5.38 µg/mL). For the same compound, the IC50 in data set [1] was 15 nM and 36 nM. Also, in data set [5], the Vd is 0.15 L/kg. For `O=c1c(Nc2ccc([N+](=O)[O-])cc2O)c(Nc2ccccc2Br)c1=O`, in data set [1], the IC50 was 37 nM. With `N#Cc1cccc(NC(=O)Nc2ccccc2)c1O`, the IC50 in data set [1] came to 276 nM.

Take `O=C(Nc1ccccc1O)Nc1ccccc1Br`: the IC50 in data set [1] was above 9000 nM. For the compound `Cc1ccccc1Nc1c(Nc2ccc(C)c(S(=O)(=O)N(C)C)c2O)c(=O)c1=O`, the clearance in data set [4] was 4 mL/min/kg. The solubility in data set [3] came to 10 µM (≈ 4.15 µg/mL). Moreover, the IC50 in data set [1] is 15 nM. In addition, the Vd in data set [5] stood at 0.25 L/kg. The compound `CN1CCN(S(=O)(=O)c2c(F)ccc(Nc3c(Nc4ccccc4Br)c(=O)c3=O)c2O)CC1.O=C(O)C(F)(F)F` had a solubility in data set [3] of 44 µM. In data set [1], the IC50 was 13 nM.

For the compound `CN1CCCN(C(=O)c2cccc(Nc3c(Nc4ccccc4)c(=O)c3=O)c2O)CC1.O=C(O)C(F)(F)F`, the clearance in data set [4] was 15 mL/min/kg. Also, the concentration in solution in data set [3] (solubility) was 178 µM. Further, the IC50 in data set [1] is 44 nM. Also, the Vd in data set [5] worked out at 0.33 L/kg.

On to `N#Cc1cccc(Nc2c(Nc3ccccc3)c(=O)c2=O)c1O`, for which the IC50 in data set [1] stood at 32 nM. On to `Cc1ccc(NC(=O)Nc2ccccc2)c(O)c1`, for which, in data set [1], the IC50 is 25000 nM. As for `Cc1ccc(O)c(NC(=O)Nc2ccccc2)c1`, in data set [1], the IC50 is above 30000 nM. The same measure, in the same setting: the figure for `Cc1cccc(O)c1NC(=O)Nc1ccccc1` is above 30000 nM; for `O=C(Nc1ccccc1)Nc1c(O)cccc1[N+](=O)[O-]` it is above 30000 nM. Same read-out and setting: the figure for `O=c1c(O)c(Nc2ccc([N+](=O)[O-])cc2O)/c1=N/c1ccccc1` is 22 nM. On the same count and under the same terms, the figure for `O=c1c(Nc2ccccc2O)c(Nc2ccccc2Br)c1=O` is 51 nM. Consider `COCCNS(=O)(=O)c1c(Cl)ccc(Nc2c(Nc3ccccc3)c(=O)c2=O)c1O`, for which, in data set [4], the clearance came out at 0.6 mL/min/kg. This compound also showed a solubility in data set [3] of 73 µM (≈ 33 µg/mL). In data set [1], the concentration for half-maximal inhibition (IC50) was 8 nM. Further, the Vd in data set [5] was 0.14 L/kg. Also, the bioavailability in data set [6] was 23%. As to `Cc1ccc(Nc2c(Nc3ccccc3)c(=O)c2=O)c(O)c1`, in data set [1], the IC50 is 205 nM. With `CN1CCN(C(=O)c2cccc(Nc3c(Nc4ccccc4)c(=O)c3=O)c2O)CC1.O=C(O)C(F)(F)F`, the concentration in solution in data set [3] (solubility) was 121 µM. For the same compound, the IC50 in data set [1] was found to be 27 nM. For the compound `O=C(Nc1ccccc1)Nc1cc(Cl)ccc1O`, the IC50 in data set [1] was above 30000 nM. Same read-out and setting: in the case of `Cc1ccc(O)c(Nc2c(Nc3ccccc3)c(=O)c2=O)c1` it was 308 nM.

For `Cc1cccc(O)c1Nc1c(Nc2ccccc2)c(=O)c1=O`, the IC50 in data set [1] was determined as 1720 nM. As to `O=C(c1cccc(Nc2c(Nc3ccccc3C(F)(F)F)c(=O)c2=O)c1O)N1CCCC1`, in data set [4], the clearance stood at 45 mL/min/kg. In addition, in data set [3], the concentration in solution (solubility) came to 86 µM (≈ 38.3 µg/mL). In data set [5], the Vd worked out at 0.66 L/kg. The compound `O=C(c1c(Cl)ccc(Nc2c(Nc3ccccc3Br)c(=O)c2=O)c1O)N1CCCC1` gave a solubility in data set [3] of 143 µM (≈ 70.2 µg/mL). In addition, the IC50 in data set [1] worked out at 28 nM. On to `O=c1c(O)c(Nc2ccccc2)/c1=N/c1ccccc1O`, for which the half-inhibitory concentration (IC50) in data set [1] was determined as 235 nM. Also, the pKa in data set [2] stood at 8.6. Consider `O=C(Nc1ccccc1)Nc1cc(Cl)c([N+](=O)[O-])cc1O`, for which the IC50 in data set [1] was 950 nM. Consider `O=c1c(Nc2ccc(Cl)cc2O)c(Nc2ccccc2Br)c1=O`, for which, in data set [3], the solubility is 3 µM (≈ 1.18 µg/mL). In addition, the IC50 in data set [1] was determined as 32 nM.

`CN1CCCN(S(=O)(=O)c2c(Cl)ccc(Nc3c(Nc4ccccc4Cl)c(=O)c3=O)c2O)CC1.Cl` returned a clearance in data set [4] of 4 mL/min/kg. In data set [3], this compound came in with a solubility of 160 µM. Further, the IC50 in data set [1] was 20 nM. For the same compound, the Vd in data set [5] is 0.31 L/kg. In data set [4], `Cl.O=c1c(Nc2ccccc2)c(Nc2ccc(Cl)c(S(=O)(=O)N3CCC(N4CCCCC4)CC3)c2O)c1=O` returned a clearance of 1.2 mL/min/kg. This compound had a solubility in data set [3] of 7 µM. The Vd in data set [5] was 0.24 L/kg. The same compound came in with a bioavailability in data set [6] of 5%.

`CN1CCCN(S(=O)(=O)c2c(Cl)ccc(Nc3c(Nc4ccccc4Br)c(=O)c3=O)c2O)CC1.Cl` registered a clearance in data set [4] of 4 mL/min/kg. Also, the solubility in data set [3] was 138 µM. In addition, in data set [1], the concentration for half-maximal inhibition (IC50) was determined as 10 nM. The Vd in data set [5] was 0.24 L/kg. Regarding `O=C(Nc1ccccc1)Nc1ccccc1O`, in data set [1], the IC50 was above 30000 nM.

By IC50 is commonly meant the concentration that inhibits the measured activity by half. Usually pKa stands for the negative logarithm of the acid dissociation constant. A low value points to a group that gives up its proton readily. The term solubility denotes the dissolved amount per volume that the medium holds. Read a high solubility as a readily soluble substance. As a reminder, the bioavailability is the share of a dose that reaches the circulation, judged against a reference dose that is usually intravenous. A low value points to little systemic uptake.
